# Reference: ChEMBL document CHEMBL5537157, “Selective Antitumor Effect and Lower Toxicity of Mitochondrion-Targeting Derivatization of Triptolide” (J Med Chem, 2024)
# Calls of active or inactive are those of the source. The calls are words filed in the database; no cut-off is given here.
# Columns and labels:
# [1] = Cytotoxicity against human BEAS-2B cells assessed as inhibition of cell viability incubated for 48 hrs by MTT assay; type: toxicity, cell-based
# NCI-H460 [2] = assay: Cytotoxicity against human NCI-H460 cells assessed as inhibition of cell viability incubated for 48 hrs by MTT assay; type: functional, cell-based; conditions: NCI-H460, 48 h
# NCI-H1975 [3] = assay: Cytotoxicity against human NCI-H1975 cells assessed as inhibition of cell viability incubated for 48 hrs by MTT assay; type: functional, cell-based; conditions: NCI-H1975, 48 h
# MCF7 [4] = assay: Cytotoxicity against human MCF7 cells assessed as inhibition of cell viability incubated for 48 hrs by MTT assay; type: functional, cell-based; conditions: MCF7, 48 h
# A549 [5] = assay: Cytotoxicity against human A549 cells assessed as inhibition of cell viability incubated for 48 hrs by MTT assay; type: functional, cell-based; conditions: A549, 48 h
# [6] = Drug accumulation in mitochondria of human NCI-H1975 cells at 120 nM incubated for 5 hrs by Red CMXRos probe based analysis; type: ADME; conditions: nci-h1975, 5 h, 0.12 µM
# NCI-H1975 [7] = assay: Inhibition of cell viability in human NCI-H1975 cells assessed as effect on cell index at 80 nM by real-time cell analysis; type: functional, cell-based
# MCF7 [8] = assay: Cytotoxicity against human MCF7 cells assessed as cell growth inhibition incubated for 48 hrs by MTT assay; type: functional, cell-based
# A549 [9] = assay: Cytotoxicity against human A549 cells assessed as cell growth inhibition incubated for 48 hrs by MTT assay; type: functional, cell-based
# NCI-H1975 [10] = assay: Cytotoxicity against human NCI-H1975 cells assessed as cell growth inhibition incubated for 48 hrs by MTT assay relative to control; type: functional
# NCI-H1975 [11] = assay: Cytotoxicity against human NCI-H1975 cells assessed as cell growth inhibition incubated for 48 hrs by MTT assay; type: functional, cell-based
# NCI-H460 [12] = assay: Cytotoxicity against human NCI-H460 cells assessed as cell growth inhibition incubated for 48 hrs by MTT assay; type: functional, cell-based
# BEAS-2B = assay: Cytotoxicity against human BEAS-2B cells assessed as cell growth inhibition incubated for 48 hrs by MTT assay; type: toxicity, cell-based
SMILES,IC50 at 48 h [1],IC50 (NCI-H460 [2]),IC50 (NCI-H1975 [3]),IC50 (MCF7 [4]),IC50 (A549 [5]),Drug uptake [6],inhibition (NCI-H1975 [7]),inhibition (MCF7 [8]),inhibition (A549 [9]),Imax (NCI-H1975 [10]),inhibition (NCI-H1975 [11]),inhibition (NCI-H460 [12]),inhibition (INH) (BEAS-2B)
CC(C)[C@]12O[C@H]1[C@@H]1O[C@]13[C@]1(O[C@H]1C[C@H]1C4=C(CC[C@@]13C)C(=O)OC4)[C@@H]2OC(=O)CCCCC[n+]1ccc(/C=C/c2c[nH]c3ccccc23)cc1,94.3 µM,3.12 µM,2.86 µM,16.7 µM,> 50 µM,,,,,,,,
CC(C)[C@]12O[C@H]1[C@@H]1O[C@]13[C@]1(O[C@H]1C[C@H]1C4=C(CC[C@@]13C)C(=O)OC4)[C@@H]2OC(=O)CCCCCCC[n+]1ccc(/C=C/c2c[nH]c3ccccc23)cc1.[Br-],48.8 µM,17.5 µM,0.4 µM,7.09 µM,> 50 µM,Active,Active,,,,,,
CC(C)[C@]12O[C@H]1[C@@H]1O[C@]13[C@]1(O[C@H]1C[C@H]1C4=C(CC[C@@]13C)C(=O)OC4)[C@]2(O)COC(=O)CCCC[P+](c1ccccc1)(c1ccccc1)c1ccccc1,> 100 µM,> 100 µM,> 100 µM,> 100 µM,> 100 µM,,,,,,,,
CC(C)[C@]12O[C@H]1[C@@H]1O[C@]13[C@]1(O[C@H]1C[C@H]1C4=C(CC[C@@]13C)C(=O)OC4)[C@]2(O)COC(=O)CCCCCCC[P+](c1ccccc1)(c1ccccc1)c1ccccc1,21.7 µM,29.9 µM,24.9 µM,> 100 µM,27.3 µM,,,,,,,,
CC(C)[C@]12O[C@H]1[C@@H]1O[C@]13[C@]1(O[C@H]1C[C@H]1C4=C(CC[C@@]13C)C(=O)OC4)[C@]2(O)COC(=O)CCCCCCCCC[P+](c1ccccc1)(c1ccccc1)c1ccccc1,23.6 µM,26.7 µM,18.6 µM,30.2 µM,23 µM,,,,,,,,
CC(C)[C@]12O[C@H]1[C@@H]1O[C@]13[C@]1(O[C@H]1C[C@H]1C4=C(CC[C@@]13C)C(=O)OC4)[C@@H]2OC(=O)CCCCCCCCCC[n+]1ccc(/C=C/c2c[nH]c3ccccc23)cc1,12.7 µM,,0.34 µM,5.26 µM,> 50 µM,,,,,,,,
CC(C)[C@]12O[C@H]1[C@@H]1O[C@]13[C@]1(O[C@H]1C[C@H]1C4=C(CC[C@@]13C)C(=O)OC4)[C@@H]2OC(=O)CCCC[n+]1ccc(/C=C/c2c[nH]c3ccccc23)cc1,35.7 µM,> 50 µM,5.74 µM,47.2 µM,> 50 µM,,,,,,,,
CC(C)[C@]12O[C@H]1[C@@H]1O[C@]13[C@]1(O[C@H]1C[C@H]1C4=C(CC[C@@]13C)C(=O)OC4)[C@]2(O)C=O,> 100 µM,> 50 µM,> 50 µM,> 100 µM,> 100 µM,,,,,,,,
CC(C)[C@]12O[C@H]1[C@@H]1O[C@]13[C@]1(O[C@H]1C[C@H]1C4=C(CC[C@@]13C)C(=O)OC4)[C@]2(O)CO,> 100 µM,> 50 µM,> 100 µM,> 100 µM,> 100 µM,,,,,,,,
CC(C)[C@]12O[C@H]1[C@@H]1O[C@]13[C@]1(O[C@H]1C[C@H]1C4=C(CC[C@@]13C)C(=O)OC4)[C@@H]2OC(=O)CCCCC[P+](c1ccccc1)(c1ccccc1)c1ccccc1.[Br-],> 10 µM,> 10 µM,0.14 µM,> 10 µM,> 10 µM,,,Dose-Dependent Effect,Dose-Dependent Effect,~65%,Dose-Dependent Effect,Dose-Dependent Effect,Dose-Dependent Effect
CC(C)[C@]12O[C@H]1[C@@H]1O[C@]13[C@]1(O[C@H]1C[C@H]1C4=C(CC[C@@]13C)C(=O)OC4)[C@@H]2OC(=O)CCCCCCCCC[n+]1ccc(/C=C/c2c[nH]c3ccccc23)cc1,11.9 µM,5.09 µM,0.44 µM,6.24 µM,24.9 µM,,,,,,,,
CC(C)[C@]12O[C@H]1[C@@H]1O[C@]13[C@]1(O[C@H]1C[C@H]1C4=C(CC[C@@]13C)C(=O)OC4)[C@]2(O)COC(=O)CCCCCC[P+](c1ccccc1)(c1ccccc1)c1ccccc1,> 30 µM,> 50 µM,> 30 µM,> 50 µM,38.4 µM,,,,,,,,
CC(C)[C@]12O[C@H]1[C@@H]1O[C@]13[C@]1(O[C@H]1C[C@H]1C4=C(CC[C@@]13C)C(=O)OC4)[C@@H]2OC(=O)CCCCCC[n+]1ccc(/C=C/c2c[nH]c3ccccc23)cc1,27.9 µM,11.9 µM,0.27 µM,,47.8 µM,,,,,,,,
CC(C)[C@]12O[C@H]1[C@@H]1O[C@]13[C@]1(O[C@H]1C[C@H]1C4=C(CC[C@@]13C)C(=O)OC4)[C@]2(O)COC(=O)CCCCCCCC[P+](c1ccccc1)(c1ccccc1)c1ccccc1,23.4 µM,27.7 µM,24.7 µM,20.9 µM,21.7 µM,,,,,,,,
CC(C)[C@]12O[C@H]1[C@@H]1O[C@]13[C@]1(O[C@H]1C[C@H]1C4=C(CC[C@@]13C)C(=O)OC4)[C@]2(O)COC(=O)CCCCC[P+](c1ccccc1)(c1ccccc1)c1ccccc1,> 50 µM,> 50 µM,> 100 µM,> 50 µM,> 100 µM,,,,,,,,
C[n+]1ccc(/C=C/c2c[nH]c3ccccc23)cc1,> 100 µM,> 50 µM,> 50 µM,> 100 µM,> 100 µM,,,,,,,,
COc1cccc2c1C(=O)c1c(O)c3c(c(O)c1C2=O)C[C@@](O)(C(=O)CO)C[C@@H]3O[C@H]1C[C@H](N)[C@H](O)[C@H](C)O1 [DOXORUBICIN],42 µM,0.581 µM,2.64 µM,,2.54 µM,,,,,,,,
C1=CCC(P(c2ccccc2)c2ccccc2)C=C1 (stereo not given),> 100 µM,> 100 µM,> 100 µM,> 100 µM,> 100 µM,,,,,,,,
